Data from patent US9522935B2, “Commands and method of treating cancer via RHO pathway” (priority 2013, dated 2016).

Experiments:
[1] = system: HepG2 cells; experiment: Flow cytometry (PI staining) for apoptosis of HepG2 cells; type: cell-based, human; settings: HepG2, 24 hours, 0.03-17.5 μM
Protocol: The study was conduct by using flow cytometry to detect apoptosis of HepG2 cells after being treated for 24 hours with LD030 at concentrations 0.03 μM, 0.14 μM, 0.7 μM, 3.5 μM, and 17.5 μM along with blank control. Then proceeded as follows:
1. Collect cells (1-5×10^6/mL), centrifuge at 500-1000 r/min for 5 min, and discard the culture medium.
2. Wash the cells with 3 ml PBS once.
3. Centrifuge to discard PBS, and add 70% ice-cold ethanol for fixation, 4° C., 1-2 hours.
4. Centrifuge to discard ethanol, and re-suspend in 3 ml PBS for 5 min.
5. Filter with a 400 mesh screen, and centrifuge 500-1000 r/min for 5 min to discard PBS.
6. Stain with 1 ml propidium iodide (Propidium Iodide, PI) at 4° C. in the dark for 30 min.
7. Conduct flow cytometry.

[2] = system: NCI-H460 (lung cancer cell line); experiment: MTT assay, LD030 on NCI-H460; type: cell-based; settings: Homo sapiens; NCI-H460, 100 μM, 48 hours; read-out: inhibition rate on cell growth
Protocol: (§1) MTT assay, a well known method known in the art, was used to analyze anticancer effects of compound LD030 on human cancer cell lines, such as, HepG2 (liver cancer cell line), PancI (pancreatic cancer cell line), NCI-H460 (lung cancer cell line), MCF-7 (breast adenocarcinoma cell line) and SF-268 (brain tumor cell lines). An LD030 solution was diluted gradually to obtain a serial of LD030 solutions with decreasing concentrations, which was used to treat various cancer cell lines mentioned above incubated in separate container. […] For incubating with HepG2 cell line, LD030's concentrations were 0.001 μM, 0.01 μM, 0.1 μM, 1 μM, 10 μM, 100 μM. For PancI cell line, the concentrations were 0.1 μM, 1 μM, 10 μM, 100 μM. For NCI-H460 cell line, the concentrations were 0.001 μM, 0.01 μM, 0.1 μM, 1 μM, 10 μM, 100 μM. For MCF-7 cell line, the concentrations were 0.001 μM, 0.01 μM, 0.1 μM, 1 μM, 10 μM, 100 μM. For SF-268 cell line, the concentrations were 0.001 μM, 0.01 μM, 0.1 μM, 1 μM, 10 μM, 100 μM.

[3] = system: Jak/STAT phosphorylation in PancI cells; experiment: Western Blotting of signal pathway proteins in PancI cells; type: cell-based, human
Protocol: The Jak/STAT channel plays an important role in cell growth, proliferation, and survival. Using Western Blotting, the present invention studied the effect of LD030 on Jak/STAT phosphorylation in PancI cells.
The cells were treated with LD030 at concentrations of 20 μM and 50 μM, for 4 hours, 8 hours, 24 hours, and 48 hours. After the treatment, the cells were collected and subject to lysis in the buffer (50 mM Tris-HCl pH7.5, 100 mM NaCl, 5 mM EDTA, 40 mM NaP2O7, 1% Triton X-100, 1 mM dithiothreitol, 200 μM Na3VO4, 100 μM phenylmethysufonyl fluoride fluoride, 2 μg/ml leupeptin, 4 μg/ml aprotinin and 0.7 μg/ml pepstatin). Analysis of stained protein (BioRad, 500-0006) was conduct for adjusting the protein concentration. Same quantity of protein (50 μg/lane) was used for 10% SDS-polyacrylamide gel electrophoresis, and then electrically transferred to the polyvinylidene fluoride (PVDF) membrane. The membrane was treated with antibodies specific to p-Jak2 (Cell signaling, 3771), p-Stat3 (Cell signaling, 9131) and α-tubulin (Zymed Laboratories, 32-2500). Visible protein bands were detected with an enhanced chemiluminescence (ECL Plus) detection system (Amersham).
The protein electrophoresis results in the above described experiments are shown FIGS. 23 and 24 for LD030 treatments at 20 μM and 50 μM, respectively. […] The expression of tubulin as internal reference was basically unchanged.

[4] = system: HepG2 (liver cancer cell line); experiment: MTT assay, LD030 on HepG2; type: cell-based; settings: Homo sapiens, 48 hours, read-out: inhibition rate on cell growth
Protocol: as §1

[5] = system: MCF-7 (breast adenocarcinoma cell line); experiment: MTT assay, LD030 on MCF-7; type: cell-based; settings: Homo sapiens, MCF7; MCF-7, 100 μM, 48 hours; read-out: inhibition rate on cell growth
Protocol: as §1

[6] = system: allograft pancreatic cancer cell lines; experiment: Allograft pancreatic cancer cell lines in mouse model, tumor size; type: in vivo; settings: 0.01 mg/kg intraperitoneal injection, three times a week
Protocol: (§2) LD030's effect on the growth of allograft pancreatic cancer cell lines was further studied as follows: Each mouse model was given 0.01 mg/kg LD030 via intraperitoneal injection, three times a week. […] Extracted from the treated mouse and the control mouse, the phosphorylation-signal transduction and activator of transcription (p-STAT3), phospho-JAK2 (p-JAK2), Bcl-XL, apoptosis protease 3, 9 and GADPH (glyceraldehyde-3-phosphate dehydrogenase, or […]) were subject to protein electrophoresis. […] GADPH was used as an internal reference, the expression of which was basically unchanged.

[7] = system: HepG2; experiment: In vitro effects on growth of liver cancer cells (Table 4); type: cell-based, human
[8] = system: p-STAT3, p-JAK2, Bcl-XL, apoptosis protease 3, 9; experiment: Protein electrophoresis of extracts from treated allograft mouse; type: in vivo; settings: 0.01 mg/kg intraperitoneal injection, three times a week; versus control mouse
Protocol: as §2

[9] = Toxicity study of LD030 on BALB/c mice; type: in vivo
Protocol: LD030 animal toxicity experiments were conducted in adult BALB/c mice. The mice were subject to a […] dosage of 1-16 mg/Kg via peritoneal injection. […] The results confirmed that at a dosage as high as 16 mg/Kg LD030 is safe to BALB/c. By short-term toxicological experiment, the half-lethal dose LD50 (under continuous treatment) is 4 mg/kg, and the median effective dose ED50 of 0.2 mg/kg, resulting in a therapeutic Index of 20 (that is, LD50/ED50≈20).

[10] = 20 μM, at 24 hours and 48 hours, versus blank control
[11] = 50 μM, at 24 hours and 48 hours, versus blank control

## CC(=O)OC(C)(C)C(=O)CCC(C)C1CC[C@@]2(C)C34CC[C@H]5C(C)(C)[C@@H](O)CC[C@]5(C)C3(CC[C@]12C)O4 (stereo partly drawn) [LD030]
[1]
  cell lysis by flow cytometry: greater proportions of cell lysis with increased LD030 concentrations
[2]
  inhibition at 100 µM: > 80%
[3]; [10]
  p-jak2: significantly reduced
  p-stat3 (tyr705): significantly reduced
[3]; 20 μM, versus blank control
  p-JNK: up-regulates
[3]; [11]
  p-ERK: significantly reduced
  p-c-raf: significantly reduced
[3]; 50 μM, at 48 hours
  expression of Cyclin D1: decreased
[3]; 50 μM, versus blank control
  expression of p-JNK: increased
  expression of p-p38: increased
[4]
  inhibition at 100 µM: > 80%
[5]
  inhibition at 100 µM: > 80%
[6]
  tumor size versus untreated control mouse: significantly reduced
[7]; Homo sapiens, HepG2, in vitro growth of HepG2 liver cancer cells
  IC50: 1330 nM
[7]; in vitro growth of HepG2 liver cancer cells
  IC50: 1570 nM
[8]
  expression of Bcl-XL: significantly reduced
  expression of apoptosis protease 3, 9: significantly increased
  expression of p-JAK2: significantly reduced
  expression of p-STAT3: significantly reduced
[9]; BALB/c, mouse, in vivo
  therapeutic Index (LD50/ED50): 20
[9]; BALB/c, mouse, in vivo, short-term toxicological experiment, under continuous treatment, read-out: half-lethal dose LD50
  LD50: 4 mg/kg
[9]; Mus musculus, read-out: median effective dose ED50
  ED50: 0.2 mg/kg
[9]; adult BALB/c mice, 1-16 mg/Kg via peritoneal injection
  toxicity observed: No significant toxicity
[9]; adult BALB/c mice, 1-16 mg/Kg via peritoneal injection, after 14 days
  survival: still alive
